“Also recorded” adds a separate entry of the source.
Columns and labels:
[1] = tested on: S. aureus; format: cell-based; conditions: 10 – 80 μM, pH 7.0 and 5.7, 6 hours
[2] = tested on: Enterococcus faecalis; format: cell-based; conditions: neutral and acidic pH
[3] = tested on: Pseudomonas auruginosa; format: cell-based; conditions: neutral and acidic pH
[4] = tested on: Mtb; assay: Bactericidal activity of AC2P36; format: cell-based, Mycobacterium tuberculosis strain CDC1551
[5] = tested on: Proteus vulgaris; format: cell-based; conditions: neutral and acidic pH
[6] = tested on: Mtb; assay: Intracellular reactive oxygen species; format: cell-based, Mycobacterium tuberculosis
[7] = tested on: Escherichia coli; format: cell-based; conditions: neutral and acidic pH
[8] = tested on: Mtb cytoplasmic pH; assay: Cytoplasmic pH measurement; format: cell-based; conditions: pH 5.7, over 24 hours
[9] = tested on: S. aureus (ΔsodAΔsodM); format: cell-based; conditions: pH 7.0 and 5.7
[10] = tested on: S. aureus free thiols; assay: Free thiols in S. aureus; format: cell-based, Staphylococcus aureus strain Newman; conditions: 20 μM, pH 5.7
[11] = tested on: Mtb; assay: Fractional killing and potentiation of antimicrobials; format: cell-based, Mycobacterium tuberculosis; conditions: pH 5.7, 3 days; for reduction in bacterial growth relative to the initial inoculum, compound alone: 10 μM AC2P36 alone or 10 μM INH alone
[12] = in vitro; format: cell-based; conditions: mouse
[13] = tested on: Mtb; format: cell-based
[14] = tested on: Mtb; assay: Menadione sensitivity assay; format: cell-based, Mycobacterium tuberculosis; conditions: pH 5.7, dose response of AC2P36 and menadione, six days, OD
[15] = tested on: Mtb free thiol pools; assay: Free thiol pools in Mtb; format: cell-based; conditions: for free thiol pools relative to DMSO/untreated control: pH 7.0 and 5.7, 24 hours, 2 or 20 μM AC2P36, 20 μM auranofin, INH
[16] = tested on: Mtb reporter strain CDC1551::roGFP-R12; format: cell-based, Mycobacterium tuberculosis; conditions: pH 7.0 and 5.7, 0.1 – 20 μM, 6 h
[17] = tested on: Staphylococcus aureus; format: cell-based; conditions: neutral and acidic pH
[18] = tested on: Mtb; assay: Protection from AC2P36 by ROS scavenging agents; format: cell-based, Mycobacterium tuberculosis; conditions: pH 5.7, dose response of scavenger, six days, OD

In the case of `O[C@@H](CS)[C@@H](O)CS` (racemic) [DTT, Dithiothreitol, reference compound], the “ROS accumulation in S. aureus” value [1] is reported as “had no effect on ROS accumulation”.
In the case of `COc1ccc(NC(=O)c2nc(S(C)(=O)=O)ncc2Cl)cc1Cl` [AC2P36, 5-chloro-N-(3-chloro-4-methoxyphenyl)-2-methylsulfonylpyrimidine-4-carboxamide], the “susceptibility of E. faecalis to AC2P36” value [2] is reported as “exhibit susceptibility to AC2P36”, the “susceptibility of P. aeruginosa to AC2P36” value [3] is reported as “relatively unaffected” and the “reduction of viability relative to the DMSO treated control” value ([4]; 20 μM AC2P36, pH 5.7, by 7 days) is reported as ~ 100 fold. For the same compound, the “concentrations at which bactericidal activity is observed” value ([4]; pH 5.7, 6 days of treatment) was greater than 10 µM, the “susceptibility of P. vulgaris to AC2P36” value [5] was “relatively unaffected” and the “accumulation of intracellular ROS” value ([6]; 2 or 20 μM AC2P36, pH 7.0 and 5.7, 24 hours) was “dose-dependent and pH-dependent accumulation of reactive oxygen species; also recorded: significant induction of ROS”. For the same compound, the “susceptibility of E. coli to AC2P36” value [7] was “relatively unaffected”, the “effect on Mtb cytoplasmic pH” value [8] was “does not modulate Mtb cytoplasmic pH” and the “enhanced sensitivity of S. aureus (ΔsodAΔsodM) to AC2P36 compared to WT” value [9] was ~ 2 fold. For the same compound, the “reduction in free thiols in S. aureus” value [10] was ~ 30%, the “synergy/potentiation in combination with rifampin” value ([11]; 10 μM AC2P36 + 0.3 μM rifampin) was “no significant synergy; also recorded: No potentiation was observed” and the “reduction in bacterial growth relative to the initial inoculum, compound alone” value [11] was “approximately 2 fold”. The CC50 at 3 days [12] was 17 µM, the “selectivity at acidic pH (pH 5.7 vs pH 7.0 EC50)” value [13] was ~ 10 fold and the “concentrations at which Mtb growth is slowed/inhibited at neutral pH” value ([13]; pH 7.0) was greater than 30 μM. For the same compound, the synergy with menadione [14] was “did not synergize”, the “ROS accumulation in S. aureus” value [1] was “enhanced ROS accumulation in a dose-dependent manner” and the “depletion of free thiols vs DMSO treated samples” value ([15]; 20 μM AC2P36, pH 5.7, 24 hours) was ~ 16 fold. The “free thiol concentration after treatment” value ([15]; 20 μM AC2P36, pH 5.7, 24 hours (DMSO ~1.3 μM)) was ~ 80 nM, the “reduction of free thiols” value ([15]; 20 μM AC2P36, pH 7.0, 24 hours) was “reduced by one third” and the “free thiol pools relative to DMSO/untreated control” value [15] was “significantly depleted thiol pools at both pH 7.0 and 5.7”. For the same compound, the “cytoplasmic redox status (roGFP)” value [16] was “leads to a reduced cytoplasm in a dose-dependent and pH-independent manner; also recorded: promotes a reduced cytoplasm in a dose-dependent and pH-independent manner” and the “susceptibility of S. aureus to AC2P36” value [17] was “exhibit susceptibility to AC2P36”.
In the case of `CC(C)/N=c1\cc2n(-c3ccc(Cl)cc3)c3ccccc3nc-2cc1Nc1ccc(Cl)cc1` [Clofazimine, clofazimine, reference compound], the “effect on Mtb growth, compound alone” value ([11]; 100 μM clofazimine alone) is reported as “did not impact Mtb growth”.
For `NNC(=O)c1ccncc1` [INH, isoniazid, reference compound], the “reduction in bacterial growth relative to the initial inoculum, compound alone” value [11] was “approximately 2 fold” and the “free thiol pools relative to DMSO/untreated control” value [15] was “comparable thiol concentrations as the untreated cultures”.
With `CC(=O)N[C@@H](CS)C(=O)O` [NAC, N-acetylcysteine] the “protection of Mtb from 32 μM AC2P36” value [18] was “protects Mtb from killing by 32 μM AC2P36 in a dose dependent manner”.
For `CC(=O)OC[C@H]1O[C@@H]([S-])[C@H](OC(C)=O)[C@@H](OC(C)=O)[C@@H]1OC(C)=O.CCP(CC)CC.[Au+]` [auranofin, reference compound], the “reduction in free thiols in S. aureus” value [10] was ~ 30% and the “free thiol pools relative to DMSO/untreated control” value [15] was “depleted free thiols relative to the DMSO treated control”.
With `CN(C)C(=O)/N=N/C(=O)N(C)C` [diamide, reference compound] the “accumulation of intracellular ROS” value ([6]; 20 μM diamide, neutral pH) was “resists diamide treatment”, the “accumulation of intracellular ROS” value ([6]; 20 μM diamide, pH 5.7) was “significant increase in ROS” and the “enhancement in bacterial growth relative to the initial inoculum, compound alone” value ([11]; 1 mM diamide alone) was 1.8 fold.

Source: article PMC5562523 (Cell chemical biology, 2017)
